Assay results published in BindingDB's records for doi:10.1016/j.ejmech.2020.112034 (Shiv Nadar University, 2020).

Legend:
[1] = molecular target: T1, Maltase-glucoamylase (Homo sapiens, UniProt O43451); test: Mixed type inhibition of alpha-glucosidase (unknown origin) using p-nitrophenyl-alpha-D glucopyranoside as substrate incubated for 30 mins by Lineweaver-Burk plot analysis
[2] = molecular target: T1, Maltase-glucoamylase; test: Non-competitive inhibition of alpha-glucosidase (unknown origin) using p-nitrophenyl-alpha-D glucopyranoside as substrate incubated for 30 mins by Lineweaver-Burk plot analysis

T1 sequence (O43451 whole entry): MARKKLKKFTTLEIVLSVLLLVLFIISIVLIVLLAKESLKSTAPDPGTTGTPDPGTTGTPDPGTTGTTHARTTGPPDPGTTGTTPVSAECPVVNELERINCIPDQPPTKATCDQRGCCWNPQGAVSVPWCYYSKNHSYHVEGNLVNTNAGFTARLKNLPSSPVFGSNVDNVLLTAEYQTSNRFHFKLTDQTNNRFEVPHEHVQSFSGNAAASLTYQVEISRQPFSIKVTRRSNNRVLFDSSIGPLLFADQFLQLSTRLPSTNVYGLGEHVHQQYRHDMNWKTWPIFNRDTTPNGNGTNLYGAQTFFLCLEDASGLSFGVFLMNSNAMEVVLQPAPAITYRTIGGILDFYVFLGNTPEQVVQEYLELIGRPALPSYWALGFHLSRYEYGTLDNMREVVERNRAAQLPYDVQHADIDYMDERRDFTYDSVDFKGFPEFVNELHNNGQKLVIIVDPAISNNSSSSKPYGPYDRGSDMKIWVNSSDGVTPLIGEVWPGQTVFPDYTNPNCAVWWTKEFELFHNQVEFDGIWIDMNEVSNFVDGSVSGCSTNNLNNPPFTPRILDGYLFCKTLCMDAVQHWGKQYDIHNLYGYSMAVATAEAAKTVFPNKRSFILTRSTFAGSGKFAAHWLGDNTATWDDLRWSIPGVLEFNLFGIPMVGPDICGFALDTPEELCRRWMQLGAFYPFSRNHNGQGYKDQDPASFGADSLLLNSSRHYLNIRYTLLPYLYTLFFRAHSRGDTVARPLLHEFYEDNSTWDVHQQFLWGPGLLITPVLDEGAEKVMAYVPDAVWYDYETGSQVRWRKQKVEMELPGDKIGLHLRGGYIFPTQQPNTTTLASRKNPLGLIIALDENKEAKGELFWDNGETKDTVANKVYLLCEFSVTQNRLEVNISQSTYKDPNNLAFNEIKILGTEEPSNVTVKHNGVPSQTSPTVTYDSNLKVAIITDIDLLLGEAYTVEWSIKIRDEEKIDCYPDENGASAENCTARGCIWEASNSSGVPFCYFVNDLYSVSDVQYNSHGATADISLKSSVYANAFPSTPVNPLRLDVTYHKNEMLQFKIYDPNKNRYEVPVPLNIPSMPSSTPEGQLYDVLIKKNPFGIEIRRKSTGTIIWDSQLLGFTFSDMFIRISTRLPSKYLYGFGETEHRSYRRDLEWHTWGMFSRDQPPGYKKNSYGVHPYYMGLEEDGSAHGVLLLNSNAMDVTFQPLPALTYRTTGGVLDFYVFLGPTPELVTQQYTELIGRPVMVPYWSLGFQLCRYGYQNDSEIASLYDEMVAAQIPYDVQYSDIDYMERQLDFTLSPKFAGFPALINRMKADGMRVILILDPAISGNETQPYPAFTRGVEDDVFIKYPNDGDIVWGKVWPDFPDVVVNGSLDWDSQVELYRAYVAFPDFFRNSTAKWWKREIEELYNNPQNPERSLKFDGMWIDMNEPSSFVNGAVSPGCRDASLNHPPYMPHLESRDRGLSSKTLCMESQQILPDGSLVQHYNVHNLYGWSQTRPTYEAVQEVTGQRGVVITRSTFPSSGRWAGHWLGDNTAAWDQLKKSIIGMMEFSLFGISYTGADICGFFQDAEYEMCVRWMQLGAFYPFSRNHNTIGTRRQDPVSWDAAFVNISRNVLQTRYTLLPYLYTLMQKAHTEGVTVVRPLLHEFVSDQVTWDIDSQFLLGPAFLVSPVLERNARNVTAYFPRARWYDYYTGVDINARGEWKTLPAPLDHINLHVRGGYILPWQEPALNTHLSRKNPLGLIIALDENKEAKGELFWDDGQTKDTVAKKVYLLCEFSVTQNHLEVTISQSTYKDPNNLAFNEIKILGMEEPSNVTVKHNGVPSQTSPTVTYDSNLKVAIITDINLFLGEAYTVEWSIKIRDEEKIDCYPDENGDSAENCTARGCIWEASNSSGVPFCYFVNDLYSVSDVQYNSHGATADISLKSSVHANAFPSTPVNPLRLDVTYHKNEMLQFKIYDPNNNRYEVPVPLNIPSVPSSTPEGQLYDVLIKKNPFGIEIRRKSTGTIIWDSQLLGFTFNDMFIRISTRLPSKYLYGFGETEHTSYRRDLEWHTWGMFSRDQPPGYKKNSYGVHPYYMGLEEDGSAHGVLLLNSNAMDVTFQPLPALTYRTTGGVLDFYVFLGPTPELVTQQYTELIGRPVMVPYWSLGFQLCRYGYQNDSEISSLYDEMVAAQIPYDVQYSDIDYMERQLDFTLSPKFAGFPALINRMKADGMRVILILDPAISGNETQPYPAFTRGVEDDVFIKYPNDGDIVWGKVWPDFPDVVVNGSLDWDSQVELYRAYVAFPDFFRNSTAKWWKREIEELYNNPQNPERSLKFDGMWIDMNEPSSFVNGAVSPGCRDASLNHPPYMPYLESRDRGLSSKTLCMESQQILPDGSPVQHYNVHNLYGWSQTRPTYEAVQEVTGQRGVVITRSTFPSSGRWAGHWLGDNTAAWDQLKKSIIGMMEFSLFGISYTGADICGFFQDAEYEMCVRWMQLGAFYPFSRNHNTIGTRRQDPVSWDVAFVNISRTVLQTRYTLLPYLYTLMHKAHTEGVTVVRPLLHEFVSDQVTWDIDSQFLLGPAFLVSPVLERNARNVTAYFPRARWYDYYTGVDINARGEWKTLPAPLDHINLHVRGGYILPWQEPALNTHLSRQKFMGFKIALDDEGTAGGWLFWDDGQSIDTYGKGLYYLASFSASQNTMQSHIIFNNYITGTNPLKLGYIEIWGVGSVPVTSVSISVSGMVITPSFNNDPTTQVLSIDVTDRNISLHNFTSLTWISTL

Ki [1] [µM]	Ki [2] [µM]	SMILES
2.3	–	CC(C)=CCc1cc(-c2oc3cc(O)c(CC=C(C)C)c(O)c3c(=O)c2O)cc(O)c1O [CHEBI:66727]
–	5.3	CC(C)=CCc1cc(C(=O)/C=C/c2ccc(O)c(O)c2)c(O)cc1O [broussochalcone A]
